Test results: US20090214637A1, “Novel Gene Therapy Approach For Treating The Metabolic Disorder Obesity” (NEUROLOGIX, INC., priority 2007, published 2009)

Tests used:
dissociated VMN neurons = assay: Depolarization of dissociated VMN neurons by 17β-estradiol; type: cell-based, mice; conditions: 1 nM or 10 nM
primary VMN neurons = assay: Number of glucose sensing neurons after estradiol, calcium imaging; type: cell-based; conditions: 1 nM, 24 h, primary VMN neurons from female rats
Method: Overexpression of ERα in a murine hypothalamic cell line […] (FIG. 9A-C) has led to upregulation of glucose sensing genes. In order to determine whether these effects are also dependent on estrogen, primary VMN neurons from female rats were treated 17-β-estradiol at physiological levels (1 nM) and the number of glucose sensing neurons were measured in 24 h using calcium imaging.

[1] = 2-DG induced food intake versus saline; type: in vivo, mice; conditions: over 4 h, compared to saline
Source text: FIG. 8A-B depicts the effect of Hip2 silencing on the response to 2-deoxy-D-glucose (2-DG) induced hypoglycemia.
Silencing of Hip2 was achieved by AAV vectors encoding the Hip2 small hairpin RNA (Hip2 shRNA) delivered into the VMN region of the brain via injection. AAV vectors encoding the luciferase shRNA were used as controls. […] Furthermore, reduction of Hip2 levels also had no effect on the ability of the VMN neurons to sense glucose levels in blood.

| SMILES | depolarization of cells with nuclear ERα staining (dissociated VMN neurons) | depolarization of membrane ERα-immunoreactive cells (dissociated VMN neurons; dissociated VMN neurons from postnatal female mice) | number of glucose-excited neurons (primary VMN neurons) | food intake [1] |
| --- | --- | --- | --- | --- |
| C[C@]12CC[C@@H]3c4ccc(O)cc4CC[C@H]3[C@@H]1CC[C@@H]2O [17β-estradiol] | did not depolarize | majority of membrane ERα-immunoreactive cells depolarized | increased the number of glucose-excited neurons |  |
| O=CC[C@@H](O)[C@H](O)[C@H](O)CO [2-DG, 2-deoxy-D-glucose] |  |  |  | significantly increased food intake |
